Reference: the NIST ThermoML archive (doi:10.1016/j.fluid.2010.03.017)
± gives the expanded uncertainty stated by the source.

Experiment: specific heat capacity at constant pressure; cn = amount concentration of the nth substance listed, in mol/dm3
Settings: 308.65 K; 101 kPa; Liquid; heat flux microcalorimetry; c1 = 0.005

| Compound | specific heat capacity [J/K/kg] |
| --- | --- |
| [Cl-].c1ccc([P+](c2ccccc2)(c2ccccc2)c2ccccc2)cc1 [tetraphenylphosphonium chloride] + O | 4202.5 ± 84 |
| [Cl-].c1ccc([P+](c2ccccc2)(c2ccccc2)c2ccccc2)cc1 [tetraphenylphosphonium chloride] + CCO | 2520.9 ± 50 |
| [Cl-].c1ccc([P+](c2ccccc2)(c2ccccc2)c2ccccc2)cc1 [tetraphenylphosphonium chloride] + CC#N | 2269.4 ± 45 |
| [Cl-].c1ccc([P+](c2ccccc2)(c2ccccc2)c2ccccc2)cc1 [tetraphenylphosphonium chloride] + CO | 2543.2 ± 51 |

Same assay, conditions: 308.65 K; 101 kPa; Liquid; heat flux microcalorimetry; c1 = 0.01

| Compound | specific heat capacity [J/K/kg] |
| --- | --- |
| [Cl-].c1ccc([P+](c2ccccc2)(c2ccccc2)c2ccccc2)cc1 [tetraphenylphosphonium chloride] + O | 4203.6 ± 84 |
| [Cl-].c1ccc([P+](c2ccccc2)(c2ccccc2)c2ccccc2)cc1 [tetraphenylphosphonium chloride] + CCO | 2545.7 ± 51 |
| [Cl-].c1ccc([P+](c2ccccc2)(c2ccccc2)c2ccccc2)cc1 [tetraphenylphosphonium chloride] + CC#N | 2269.1 ± 45 |
| [Cl-].c1ccc([P+](c2ccccc2)(c2ccccc2)c2ccccc2)cc1 [tetraphenylphosphonium chloride] + CO | 2548.5 ± 51 |

Same assay, conditions: 308.65 K; 101 kPa; Liquid; heat flux microcalorimetry; c1 = 0.02

| Compound | specific heat capacity [J/K/kg] |
| --- | --- |
| [Cl-].c1ccc([P+](c2ccccc2)(c2ccccc2)c2ccccc2)cc1 [tetraphenylphosphonium chloride] + O | 4207 ± 84 |
| [Cl-].c1ccc([P+](c2ccccc2)(c2ccccc2)c2ccccc2)cc1 [tetraphenylphosphonium chloride] + CCO | 2549.3 ± 51 |
| [Cl-].c1ccc([P+](c2ccccc2)(c2ccccc2)c2ccccc2)cc1 [tetraphenylphosphonium chloride] + CC#N | 2258.9 ± 45 |
| [Cl-].c1ccc([P+](c2ccccc2)(c2ccccc2)c2ccccc2)cc1 [tetraphenylphosphonium chloride] + CO | 2556.9 ± 51 |

Same assay, conditions: 308.65 K; 101 kPa; Liquid; heat flux microcalorimetry; c1 = 0.05

| Compound | specific heat capacity [J/K/kg] |
| --- | --- |
| [Cl-].c1ccc([P+](c2ccccc2)(c2ccccc2)c2ccccc2)cc1 [tetraphenylphosphonium chloride] + O | 4217.3 ± 84 |
| [Cl-].c1ccc([P+](c2ccccc2)(c2ccccc2)c2ccccc2)cc1 [tetraphenylphosphonium chloride] + CCO | 2555.5 ± 51 |
| [Cl-].c1ccc([P+](c2ccccc2)(c2ccccc2)c2ccccc2)cc1 [tetraphenylphosphonium chloride] + CC#N | 2255.3 ± 45 |
| [Cl-].c1ccc([P+](c2ccccc2)(c2ccccc2)c2ccccc2)cc1 [tetraphenylphosphonium chloride] + CO | 2605.5 ± 52 |

Same assay, conditions: 308.65 K; 101 kPa; Liquid; heat flux microcalorimetry; c1 = 0.1

| Compound | specific heat capacity [J/K/kg] |
| --- | --- |
| [Cl-].c1ccc([P+](c2ccccc2)(c2ccccc2)c2ccccc2)cc1 [tetraphenylphosphonium chloride] + O | 4229.9 ± 85 |
| [Cl-].c1ccc([P+](c2ccccc2)(c2ccccc2)c2ccccc2)cc1 [tetraphenylphosphonium chloride] + CCO | 2570 ± 51 |
| [Cl-].c1ccc([P+](c2ccccc2)(c2ccccc2)c2ccccc2)cc1 [tetraphenylphosphonium chloride] + CC#N | 2238.7 ± 45 |
| [Cl-].c1ccc([P+](c2ccccc2)(c2ccccc2)c2ccccc2)cc1 [tetraphenylphosphonium chloride] + CO | 2660.8 ± 53 |

Same assay, conditions: 308.65 K; 101 kPa; Liquid; heat flux microcalorimetry; c2 = 0

| Compound | specific heat capacity [J/K/kg] |
| --- | --- |
| CC#N [acetonitrile] + [Cl-].c1ccc([P+](c2ccccc2)(c2ccccc2)c2ccccc2)cc1 | 2274.3 ± 45 |
| CO [methanol] + [Cl-].c1ccc([P+](c2ccccc2)(c2ccccc2)c2ccccc2)cc1 | 2554.5 ± 51 |
| O [water] + [Cl-].c1ccc([P+](c2ccccc2)(c2ccccc2)c2ccccc2)cc1 | 4182 ± 84 |
| CCO [ethanol] + [Cl-].c1ccc([P+](c2ccccc2)(c2ccccc2)c2ccccc2)cc1 | 2592.8 ± 52 |

Same assay, conditions: 311.65 K; 101 kPa; Liquid; heat flux microcalorimetry; c1 = 0.005

| Compound | specific heat capacity [J/K/kg] |
| --- | --- |
| [Cl-].c1ccc([P+](c2ccccc2)(c2ccccc2)c2ccccc2)cc1 [tetraphenylphosphonium chloride] + O | 4203.6 ± 84 |
| [Cl-].c1ccc([P+](c2ccccc2)(c2ccccc2)c2ccccc2)cc1 [tetraphenylphosphonium chloride] + CCO | 2581.5 ± 52 |
| [Cl-].c1ccc([P+](c2ccccc2)(c2ccccc2)c2ccccc2)cc1 [tetraphenylphosphonium chloride] + CC#N | 2275.5 ± 46 |
| [Cl-].c1ccc([P+](c2ccccc2)(c2ccccc2)c2ccccc2)cc1 [tetraphenylphosphonium chloride] + CO | 2564.1 ± 51 |

Same assay, conditions: 311.65 K; 101 kPa; Liquid; heat flux microcalorimetry; c1 = 0.01

| Compound | specific heat capacity [J/K/kg] |
| --- | --- |
| [Cl-].c1ccc([P+](c2ccccc2)(c2ccccc2)c2ccccc2)cc1 [tetraphenylphosphonium chloride] + O | 4206.5 ± 84 |
| [Cl-].c1ccc([P+](c2ccccc2)(c2ccccc2)c2ccccc2)cc1 [tetraphenylphosphonium chloride] + CCO | 2600.7 ± 52 |
| [Cl-].c1ccc([P+](c2ccccc2)(c2ccccc2)c2ccccc2)cc1 [tetraphenylphosphonium chloride] + CC#N | 2277 ± 46 |
| [Cl-].c1ccc([P+](c2ccccc2)(c2ccccc2)c2ccccc2)cc1 [tetraphenylphosphonium chloride] + CO | 2565.8 ± 51 |

Same assay, conditions: 311.65 K; 101 kPa; Liquid; heat flux microcalorimetry; c1 = 0.02

| Compound | specific heat capacity [J/K/kg] |
| --- | --- |
| [Cl-].c1ccc([P+](c2ccccc2)(c2ccccc2)c2ccccc2)cc1 [tetraphenylphosphonium chloride] + O | 4209.8 ± 84 |
| [Cl-].c1ccc([P+](c2ccccc2)(c2ccccc2)c2ccccc2)cc1 [tetraphenylphosphonium chloride] + CCO | 2606.3 ± 52 |
| [Cl-].c1ccc([P+](c2ccccc2)(c2ccccc2)c2ccccc2)cc1 [tetraphenylphosphonium chloride] + CC#N | 2267.8 ± 45 |
| [Cl-].c1ccc([P+](c2ccccc2)(c2ccccc2)c2ccccc2)cc1 [tetraphenylphosphonium chloride] + CO | 2582.9 ± 52 |

Same assay, conditions: 311.65 K; 101 kPa; Liquid; heat flux microcalorimetry; c1 = 0.05

| Compound | specific heat capacity [J/K/kg] |
| --- | --- |
| [Cl-].c1ccc([P+](c2ccccc2)(c2ccccc2)c2ccccc2)cc1 [tetraphenylphosphonium chloride] + O | 4218.4 ± 84 |
| [Cl-].c1ccc([P+](c2ccccc2)(c2ccccc2)c2ccccc2)cc1 [tetraphenylphosphonium chloride] + CCO | 2607.1 ± 52 |
| [Cl-].c1ccc([P+](c2ccccc2)(c2ccccc2)c2ccccc2)cc1 [tetraphenylphosphonium chloride] + CC#N | 2265.6 ± 45 |
| [Cl-].c1ccc([P+](c2ccccc2)(c2ccccc2)c2ccccc2)cc1 [tetraphenylphosphonium chloride] + CO | 2628.9 ± 53 |

Same assay, conditions: 311.65 K; 101 kPa; Liquid; heat flux microcalorimetry; c1 = 0.1

| Compound | specific heat capacity [J/K/kg] |
| --- | --- |
| [Cl-].c1ccc([P+](c2ccccc2)(c2ccccc2)c2ccccc2)cc1 [tetraphenylphosphonium chloride] + O | 4241.9 ± 85 |
| [Cl-].c1ccc([P+](c2ccccc2)(c2ccccc2)c2ccccc2)cc1 [tetraphenylphosphonium chloride] + CCO | 2623 ± 52 |
| [Cl-].c1ccc([P+](c2ccccc2)(c2ccccc2)c2ccccc2)cc1 [tetraphenylphosphonium chloride] + CC#N | 2250.6 ± 45 |
| [Cl-].c1ccc([P+](c2ccccc2)(c2ccccc2)c2ccccc2)cc1 [tetraphenylphosphonium chloride] + CO | 2691.7 ± 54 |

Same assay, conditions: 311.65 K; 101 kPa; Liquid; heat flux microcalorimetry; c2 = 0

| Compound | specific heat capacity [J/K/kg] |
| --- | --- |
| CC#N [acetonitrile] + [Cl-].c1ccc([P+](c2ccccc2)(c2ccccc2)c2ccccc2)cc1 | 2280.4 ± 46 |
| CO [methanol] + [Cl-].c1ccc([P+](c2ccccc2)(c2ccccc2)c2ccccc2)cc1 | 2577 ± 52 |
| O [water] + [Cl-].c1ccc([P+](c2ccccc2)(c2ccccc2)c2ccccc2)cc1 | 4182.2 ± 84 |
| CCO [ethanol] + [Cl-].c1ccc([P+](c2ccccc2)(c2ccccc2)c2ccccc2)cc1 | 2653.8 ± 53 |

Same assay, conditions: 314.65 K; 101 kPa; Liquid; heat flux microcalorimetry; c1 = 0.005

| Compound | specific heat capacity [J/K/kg] |
| --- | --- |
| [Cl-].c1ccc([P+](c2ccccc2)(c2ccccc2)c2ccccc2)cc1 [tetraphenylphosphonium chloride] + O | 4203.8 ± 84 |
| [Cl-].c1ccc([P+](c2ccccc2)(c2ccccc2)c2ccccc2)cc1 [tetraphenylphosphonium chloride] + CCO | 2627.1 ± 52 |
| [Cl-].c1ccc([P+](c2ccccc2)(c2ccccc2)c2ccccc2)cc1 [tetraphenylphosphonium chloride] + CC#N | 2281.3 ± 46 |
| [Cl-].c1ccc([P+](c2ccccc2)(c2ccccc2)c2ccccc2)cc1 [tetraphenylphosphonium chloride] + CO | 2570.9 ± 51 |

Same assay, conditions: 314.65 K; 101 kPa; Liquid; heat flux microcalorimetry; c1 = 0.01

| Compound | specific heat capacity [J/K/kg] |
| --- | --- |
| [Cl-].c1ccc([P+](c2ccccc2)(c2ccccc2)c2ccccc2)cc1 [tetraphenylphosphonium chloride] + O | 4208.4 ± 84 |
| [Cl-].c1ccc([P+](c2ccccc2)(c2ccccc2)c2ccccc2)cc1 [tetraphenylphosphonium chloride] + CCO | 2638.3 ± 53 |
| [Cl-].c1ccc([P+](c2ccccc2)(c2ccccc2)c2ccccc2)cc1 [tetraphenylphosphonium chloride] + CC#N | 2282.6 ± 46 |
| [Cl-].c1ccc([P+](c2ccccc2)(c2ccccc2)c2ccccc2)cc1 [tetraphenylphosphonium chloride] + CO | 2605.9 ± 52 |

Same assay, conditions: 314.65 K; 101 kPa; Liquid; heat flux microcalorimetry; c1 = 0.02

| Compound | specific heat capacity [J/K/kg] |
| --- | --- |
| [Cl-].c1ccc([P+](c2ccccc2)(c2ccccc2)c2ccccc2)cc1 [tetraphenylphosphonium chloride] + O | 4211.1 ± 84 |
| [Cl-].c1ccc([P+](c2ccccc2)(c2ccccc2)c2ccccc2)cc1 [tetraphenylphosphonium chloride] + CCO | 2650.8 ± 53 |
| [Cl-].c1ccc([P+](c2ccccc2)(c2ccccc2)c2ccccc2)cc1 [tetraphenylphosphonium chloride] + CC#N | 2274.3 ± 45 |
| [Cl-].c1ccc([P+](c2ccccc2)(c2ccccc2)c2ccccc2)cc1 [tetraphenylphosphonium chloride] + CO | 2599.5 ± 52 |

Same assay, conditions: 314.65 K; 101 kPa; Liquid; heat flux microcalorimetry; c1 = 0.05

| Compound | specific heat capacity [J/K/kg] |
| --- | --- |
| [Cl-].c1ccc([P+](c2ccccc2)(c2ccccc2)c2ccccc2)cc1 [tetraphenylphosphonium chloride] + O | 4219.7 ± 84 |
| [Cl-].c1ccc([P+](c2ccccc2)(c2ccccc2)c2ccccc2)cc1 [tetraphenylphosphonium chloride] + CCO | 2650 ± 53 |
| [Cl-].c1ccc([P+](c2ccccc2)(c2ccccc2)c2ccccc2)cc1 [tetraphenylphosphonium chloride] + CC#N | 2267.5 ± 45 |
| [Cl-].c1ccc([P+](c2ccccc2)(c2ccccc2)c2ccccc2)cc1 [tetraphenylphosphonium chloride] + CO | 2637.3 ± 53 |

Same assay, conditions: 314.65 K; 101 kPa; Liquid; heat flux microcalorimetry; c1 = 0.1

| Compound | specific heat capacity [J/K/kg] |
| --- | --- |
| [Cl-].c1ccc([P+](c2ccccc2)(c2ccccc2)c2ccccc2)cc1 [tetraphenylphosphonium chloride] + O | 4244.7 ± 85 |
| [Cl-].c1ccc([P+](c2ccccc2)(c2ccccc2)c2ccccc2)cc1 [tetraphenylphosphonium chloride] + CCO | 2633.7 ± 53 |
| [Cl-].c1ccc([P+](c2ccccc2)(c2ccccc2)c2ccccc2)cc1 [tetraphenylphosphonium chloride] + CC#N | 2257.9 ± 45 |
| [Cl-].c1ccc([P+](c2ccccc2)(c2ccccc2)c2ccccc2)cc1 [tetraphenylphosphonium chloride] + CO | 2721.3 ± 54 |

Same assay, conditions: 314.65 K; 101 kPa; Liquid; heat flux microcalorimetry; c2 = 0

| Compound | specific heat capacity [J/K/kg] |
| --- | --- |
| CC#N [acetonitrile] + [Cl-].c1ccc([P+](c2ccccc2)(c2ccccc2)c2ccccc2)cc1 | 2286.5 ± 46 |
| CO [methanol] + [Cl-].c1ccc([P+](c2ccccc2)(c2ccccc2)c2ccccc2)cc1 | 2621 ± 52 |
| O [water] + [Cl-].c1ccc([P+](c2ccccc2)(c2ccccc2)c2ccccc2)cc1 | 4182.4 ± 84 |
| CCO [ethanol] + [Cl-].c1ccc([P+](c2ccccc2)(c2ccccc2)c2ccccc2)cc1 | 2694.1 ± 54 |
